# Reference: patent publication US8663669B2, “Pesticide treatment of soils or substrates with sulphur compounds” (Arkema France, priority 2002, dated 2014)
# Key:
# [1] = tested on: young cucumber plants (9 cm, 2 leaves, ARIS hybrid); test: Phytotoxicity on young cucumber plants; format: in vivo
# Method: For both types of crop, 4 treatments were performed on 20 plants: • untreated control • 360 kg/ha of DMDS • 540 kg/ha of DMDS • 720 kg/ha of DMDS
# Five days after the treatment, the young plants are transplanted into pots 20 cm in diameter and 35 cm in height.
# The observations relating to the number of leaves per plant and the visual state of the plants are carried out 15 and 41 days after the transplantation: […]
# Rhizoctonia solani = test: Fungicidal efficacy by gassing, colonized barley grains; format: cell-based; set-up: Vitality score Nm (over 11 days): scale not given here; Reduction in viability RV / Reduction in vitality score RNm: unit not given here; settings: for Reduction in viability RV / Reduction in vitality score RNm: compared with the control
# Method: These four organisms are the following:
# Rhizoctonia solani: a very important group of polyphagous pathogens in the genus Rhizoctonia and which attack very many market garden crops including sweet pepper and lettuce.
# • Sclerotinia sclerotiorum: sclerotia • Sclerotium rolfsii: sclerotia • Rhizoctonia solani: colonized barley grains (mycelium and sclerotia) • Phytophthora cactorum: colonized millet grains (mycelium, sporangia and oospores) Preparation of the Fungi (24 h Before the Gassing Operation) 1. Preparation of the sclerotia of Sclerotinia sclerotiorum and of Sclerotium rolfsii: The fungi are cultured on malt agar medium until the sclerotia are obtained. The sclerotia are collected in a sterile manner and stored dry in empty Petri dishes until they are used. The sclerotia used for the trial are over 3 months old and are perfectly dormant. 2. Preparation of Phytophthora cactorum and of Rhizoctonia solani: The millet and barley used for the multiplication of the two fungi are moistened with ultrapure water by immersing for 24 hours. The grains are then slightly drained and then distributed into flasks and autoclaved (3 autoclavings at 110° C. for 20 minutes, 3 times at 24 hour intervals). Fragments of fungal culture are introduced into the flasks which are then incubated at 22° C.±2° C. (white light 18 h) until homogeneous colonization is obtained. The grains are then removed from the flasks in a sterile manner, dried in the sterile stream of a safety cabinet and then stored in the dry state until they are used. Conditions for Gassing and for Desorption
# All the batches of fungi to be treated are placed for a few hours at the trial temperature (20° C.). Between 35 and 300 units of fungi or “propagules” (grains or sclerotia) are subjected to gassing during each trial.
# Each fumigation chamber comprising to one or more species of fungi corresponds to a glass round-bottomed flask which is impervious to the gas and has a volume of 11 litres. Each round-bottomed flask is equipped with branch connections, one at the bottom for introducing the liquid DMDS, one at the top for collecting the air sample with a syringe.
# Before introducing the gas, a partial vacuum (−500 mbar) is established in the round-bottomed flask with a vacuum pump. This makes it possible, on the one hand, to avoid the phenomenon of excess pressure due to the expansibility of DMDS in the round-bottomed flask and, on the other hand, to promote better homogeneity of the air-gas mixture in the first few seconds which follow injection. The DMDS (weighed accurately to the mg) is injected with a syringe, in liquid form, through the bottom branch connection, that is to say under the screen placed at half height of the round-bottomed flask and supporting the batches of fungi. After introducing the product, the internal pressure of the round-bottomed flask is re-established at atmospheric pressure. A magnetic stirrer operates during the entire duration of the treatment in order to properly homogenize the air-gas mixture.
# At the end of the gassing, the cover for the round-bottomed flask is removed. One minute after this operation, the batches of fungi gassed are taken out and left in the open air for 15 minutes for desorption of the DMDS. They are then transferred into a Petri dish, the latter remaining open for 5 minutes to allow perfect desorption of the gas. […]
# [2] = CT 1 050 g·h/m^3 (C 15.91 g/m^3, T 66 h)
# [3] = CT 1 402 g·h/m^3 (C 21.24 g/m^3, T 66 h)
# [4] = CT 1 450 g·h/m^3 (C 30.96 g/m^3, T 48 h)
# [5] = CT 1 899 g·h/m^3 (C 28.77 g/m^3, T 66 h)
# [6] = CT 1 981 g·h/m^3 (C 30.02 g/m^3, T 66 h)
# [7] = CT 2 460 g·h/m^3 (C 51.25 g/m^3, T 48 h)
# [8] = CT 2 471 g·h/m^3 (C 37.44 g/m^3, T 66 h)
# [9] = CT 2 837 g·h/m^3 (C 42.98 g/m^3, T 66 h)
# [10] = CT 2 974 g·h/m^3 (C 45.06 g/m^3, T 66 h)
# [11] = CT 3 169 g·h/m^3 (C 48.02 g/m^3, T 66 h)
# [12] = CT 3 467 g·h/m^3 (C 52.53 g/m^3, T 66 h)
# [13] = CT 419 g·h/m^3 (C 17.46 g/m^3, T 24 h)
# [14] = CT 625 g·h/m^3 (C 26.04 g/m^3, T 24 h)
# [15] = CT 703 g·h/m^3 (C 29.29 g/m^3, T 24 h)
# [16] = CT 907 g·h/m^3 (C 37.79 g/m^3, T 24 h)
structure (smiles),measurement,setting,value
"CSSC [DMDS, dimethyl disulphide]",Visual symptom of phytotoxicity,"[1]; 360, 540, 720 kg/ha, 15 and 41 days after transplantation",no visual symptom of phytotoxicity
same,Average number of leaves per plant,"[1]; 360 kg/ha DMDS (formulation A), after 15 days",5.3
same,Average number of leaves per plant,"[1]; 360 kg/ha DMDS (formulation A), after 41 days",9.8
same,Average number of leaves per plant,"[1]; 540 kg/ha DMDS (formulation A), after 15 days",5.7
same,Average number of leaves per plant,"[1]; 540 kg/ha DMDS (formulation A), after 41 days",9.7
same,Average number of leaves per plant,"[1]; 720 kg/ha DMDS (formulation A), after 15 days",5.7
same,Average number of leaves per plant,"[1]; 720 kg/ha DMDS (formulation A), after 41 days",9.9
same,Difference in number of leaves between untreated control and treated plants,[1]; regardless of the concentration tested (360-720 kg/ha),no significant difference
same,Viability V,Rhizoctonia solani; [2],89.2%
same,Vitality score Nm (over 11 days),Rhizoctonia solani; [2],7.0
same,Reduction in viability RV,Rhizoctonia solani; [2],10.8
same,Reduction in vitality score RNm,Rhizoctonia solani; [2],22.2
same,Viability V,Rhizoctonia solani; [3],96.9%
same,Vitality score Nm (over 11 days),Rhizoctonia solani; [3],7.6
same,Reduction in viability RV,Rhizoctonia solani; [3],3.1
same,Reduction in vitality score RNm,Rhizoctonia solani; [3],15.0
same,Viability V,Rhizoctonia solani; [4],98.5%
same,Vitality score Nm (over 11 days),Rhizoctonia solani; [4],4.4
same,Reduction in viability RV,Rhizoctonia solani; [4],1.5
same,Reduction in vitality score RNm,Rhizoctonia solani; [4],51.3
same,Viability V,Rhizoctonia solani; [5],84.3%
same,Vitality score Nm (over 11 days),Rhizoctonia solani; [5],6.0
same,Reduction in viability RV,Rhizoctonia solani; [5],15.7
same,Reduction in vitality score RNm,Rhizoctonia solani; [5],33.2
same,Viability V,Rhizoctonia solani; [6],94.7%
same,Vitality score Nm (over 11 days),Rhizoctonia solani; [6],7.4
same,Reduction in viability RV,Rhizoctonia solani; [6],5.3
same,Reduction in vitality score RNm,Rhizoctonia solani; [6],17.2
same,Viability V,Rhizoctonia solani; [7],11.0%
same,Vitality score Nm (over 11 days),Rhizoctonia solani; [7],0.3
same,Reduction in viability RV,Rhizoctonia solani; [7],89.0
same,Reduction in vitality score RNm,Rhizoctonia solani; [7],96.2
same,Viability V,Rhizoctonia solani; [8],24.1%
same,Vitality score Nm (over 11 days),Rhizoctonia solani; [8],0.6
same,Reduction in viability RV,Rhizoctonia solani; [8],75.9
same,Reduction in vitality score RNm,Rhizoctonia solani; [8],92.0
same,Viability V,Rhizoctonia solani; [9],2.2%
same,Vitality score Nm (over 11 days),Rhizoctonia solani; [9],0.1
same,Reduction in viability RV,Rhizoctonia solani; [9],97.8
same,Reduction in vitality score RNm,Rhizoctonia solani; [9],98.4
same,Viability V,Rhizoctonia solani; [10],9.4%
same,Vitality score Nm (over 11 days),Rhizoctonia solani; [10],0.1
same,Reduction in viability RV,Rhizoctonia solani; [10],90.6
same,Reduction in vitality score RNm,Rhizoctonia solani; [10],98.4
same,Viability V,Rhizoctonia solani; [11],1.2%
same,Vitality score Nm (over 11 days),Rhizoctonia solani; [11],0.05
same,Reduction in viability RV,Rhizoctonia solani; [11],98.8
same,Reduction in vitality score RNm,Rhizoctonia solani; [11],99.3
same,Viability V,Rhizoctonia solani; [12],0%
same,Vitality score Nm (over 11 days),Rhizoctonia solani; [12],0
same,Reduction in viability RV,Rhizoctonia solani; [12],100
same,Reduction in vitality score RNm,Rhizoctonia solani; [12],100
same,Viability V,Rhizoctonia solani; [13],100%
same,Vitality score Nm (over 11 days),Rhizoctonia solani; [13],9.0
same,Reduction in viability RV,Rhizoctonia solani; [13],0
same,Reduction in vitality score RNm,Rhizoctonia solani; [13],0
same,Viability V,Rhizoctonia solani; [14],100%
same,Vitality score Nm (over 11 days),Rhizoctonia solani; [14],8.7
same,Reduction in viability RV,Rhizoctonia solani; [14],0
same,Reduction in vitality score RNm,Rhizoctonia solani; [14],3.1
same,Viability V,Rhizoctonia solani; [15],100%
same,Vitality score Nm (over 11 days),Rhizoctonia solani; [15],8.3
same,Reduction in viability RV,Rhizoctonia solani; [15],0
same,Reduction in vitality score RNm,Rhizoctonia solani; [15],7.3
same,Viability V,Rhizoctonia solani; [16],100%
same,Vitality score Nm (over 11 days),Rhizoctonia solani; [16],7.1
same,Reduction in viability RV,Rhizoctonia solani; [16],0
same,Reduction in vitality score RNm,Rhizoctonia solani; [16],21.6
